From PMC3111206, “Phase I study of PD 0332991, a cyclin-dependent kinase inhibitor, administered in 3-week cycles (Schedule 2/1)” (British Journal of Cancer, 2011)
Entries after “also recorded” stand apart in the source; their conditions may differ.

Experiments:
[1] = Safety assessment: adverse events and haematological toxicity graded by NCI CTCAE v3.0; assay type: in vivo, human; conditions: for Treatment-related Alopecia, All grades / Treatment-related Alopecia, Grade 3 / Treatment-related Anorexia, All grades / Treatment-related Anorexia, Grade 3 / Treatment-related Chills, All grades / Treatment-related Chills, Grade 3 / Treatment-related Constipation, All grades / Treatment-related Constipation, Grade 3 / Treatment-related Cough, All grades / Treatment-related Cough, Grade 3 / Treatment-related Diarrhoea, All grades / Treatment-related Diarrhoea, Grade 3 / Treatment-related Dyspnea, All grades / Treatment-related Dyspnea, Grade 3 / Treatment-related Epistaxis, All grades / Treatment-related Epistaxis, Grade 3 / Treatment-related Fatigue, All grades / Treatment-related Fatigue, Grade 3 / Treatment-related Flatulence, All grades / Treatment-related Flatulence, Grade 3 / Treatment-related Mucosal inflammation, All grades / Treatment-related Mucosal inflammation, Grade 3 / Treatment-related Muscular weakness, All grades / Treatment-related Muscular weakness, Grade 3 / Treatment-related Nausea, All grades / Treatment-related Nausea, Grade 3 / Treatment-related Peripheral oedema, All grades / Treatment-related Peripheral oedema, Grade 3 / Treatment-related Pyrexia, All grades / Treatment-related Pyrexia, Grade 3 / Treatment-related Rash, All grades / Treatment-related Rash, Grade 3 / Treatment-related Vomiting, All grades / Treatment-related Vomiting, Grade 3: all cohorts combined (N=33)
Description: Safety was assessed at baseline, at regular intervals throughout the study, and within 1 week following treatment discontinuation by recording AEs, haematological and biochemical parameters, and physical status (including ECOG performance status). Adverse event severity was graded using the National Cancer Institute Common Terminology Criteria for Adverse Events, version 3.0 ([Trotti et al, 2003]). Triplicate electrocardiograms (ECGs) ∼2 min apart were taken at baseline, 3 h post-dose on days 1, 8 and 15 of cycle 1, and on day 15 of subsequent cycles for up to six cycles.

platelets = assay: Pharmacodynamic Emax modelling of change in platelets vs individual AUC; assay type: in vivo; conditions: Homo sapiens, Platelet; cycle 1, vs individual AUC, 30 patients; s.e. 16.9; 18.3% CV; read-out: Emax for platelets (change from baseline)
Description: To document the course of changes in absolute neutrophil count (ANC) and platelets over time during the first two cycles of treatment, an exploratory analysis of data available from the weekly safety laboratory tests was carried out. Possible relationships between PD 0332991 exposure and changes in (i) ANC and (ii) platelets were assessed further by fitting a simple model (without baseline) to determine the maximum […] (Emax).

[2] = 200 mg QD, cycle 1, 20 patients
[3] = maximum toxicity grade, worsened vs baseline, all cohorts and all cycles (N=33)

CC(=O)c1c(C)c2cnc(Nc3ccc(N4CCNCC4)cn3)nc2n(C2CCCC2)c1=O [PD 0332991]
Neutropenia, NCICTCAE Grade 0 [1, 2]: 11 n | Neutropenia, NCICTCAE Grade 1 [1, 2]: 0 n | Neutropenia, NCICTCAE Grade 2 [1, 2]: 3 n | Neutropenia, NCICTCAE Grade 3 [1, 2]: 6 n | Neutropenia, NCICTCAE Grade 4 [1, 2]: 0 n | Patients with treatment interrupted following treatment-related AEs ([1]; 200 mg QD, during cycle 1): eight | Neutropenia, NCICTCAE Grade 0 ([1]; 225 mg QD, cycle 1, 6 patients): 3 n | Neutropenia, NCICTCAE Grade 1 ([1]; 225 mg QD, cycle 1, 6 patients): 0 n | Neutropenia, NCICTCAE Grade 2 ([1]; 225 mg QD, cycle 1, 6 patients): 0 n | Neutropenia, NCICTCAE Grade 3 ([1]; 225 mg QD, cycle 1, 6 patients): 2 n | Neutropenia, NCICTCAE Grade 4 ([1]; 225 mg QD, cycle 1, 6 patients): 1 n | Treatment-related Alopecia, All grades ([1]; After cycle 1): 2 (6) n (%) | Treatment-related Alopecia, Grade 3 ([1]; After cycle 1): 0 n (%) | Treatment-related Anorexia, All grades ([1]; After cycle 1): 3 (9) n (%) | Treatment-related Anorexia, Grade 3 ([1]; After cycle 1): 0 n (%) | Treatment-related Chills, All grades ([1]; After cycle 1): 2 (6) n (%) | Treatment-related Chills, Grade 3 ([1]; After cycle 1): 0 n (%) | Treatment-related Constipation, All grades ([1]; After cycle 1): 3 (9) n (%) | Treatment-related Constipation, Grade 3 ([1]; After cycle 1): 0 n (%) | Treatment-related Cough, All grades ([1]; After cycle 1): 2 (6) n (%) | Treatment-related Cough, Grade 3 ([1]; After cycle 1): 0 n (%) | Treatment-related Diarrhoea, All grades ([1]; After cycle 1): 10 (30) n (%) | Treatment-related Diarrhoea, Grade 3 ([1]; After cycle 1): 0 n (%) | Treatment-related Dyspnea, All grades ([1]; After cycle 1): 1 (3) n (%) | Treatment-related Dyspnea, Grade 3 ([1]; After cycle 1): 0 n (%) | Treatment-related Epistaxis, All grades ([1]; After cycle 1): 4 (12) n (%) | Treatment-related Epistaxis, Grade 3 ([1]; After cycle 1): 0 n (%) | Treatment-related Fatigue, All grades ([1]; After cycle 1): 10 (30) n (%) | Treatment-related Fatigue, Grade 3 ([1]; After cycle 1): 1 (3) n (%) | Treatment-related Flatulence, All grades ([1]; After cycle 1): 3 (9) n (%) | Treatment-related Flatulence, Grade 3 ([1]; After cycle 1): 0 n (%) | Treatment-related Mucosal inflammation, All grades ([1]; After cycle 1): 3 (9) n (%) | Treatment-related Mucosal inflammation, Grade 3 ([1]; After cycle 1): 0 n (%) | Treatment-related Muscular weakness, All grades ([1]; After cycle 1): 2 (6) n (%) | Treatment-related Muscular weakness, Grade 3 ([1]; After cycle 1): 0 n (%) | Treatment-related Nausea, All grades ([1]; After cycle 1): 5 (15) n (%) | Treatment-related Nausea, Grade 3 ([1]; After cycle 1): 1 (3) n (%) | Treatment-related Peripheral oedema, All grades ([1]; After cycle 1): 2 (6) n (%) | Treatment-related Peripheral oedema, Grade 3 ([1]; After cycle 1): 0 n (%) | Treatment-related Pyrexia, All grades ([1]; After cycle 1): 2 (6) n (%) | Treatment-related Pyrexia, Grade 3 ([1]; After cycle 1): 0 n (%) | Treatment-related Rash, All grades ([1]; After cycle 1): 2 (6) n (%) | Treatment-related Rash, Grade 3 ([1]; After cycle 1): 0 n (%) | Treatment-related Vomiting, All grades ([1]; After cycle 1): 2 (6) n (%) | Treatment-related Vomiting, Grade 3 ([1]; After cycle 1): 1 (3) n (%) | Treatment-related Alopecia, All grades ([1]; Cycle 1): 0 n (%) | Treatment-related Alopecia, Grade 3 ([1]; Cycle 1): 0 n (%) | Treatment-related Anorexia, All grades ([1]; Cycle 1): 1 (3) n (%) | Treatment-related Anorexia, Grade 3 ([1]; Cycle 1): 0 n (%) | Treatment-related Chills, All grades ([1]; Cycle 1): 0 n (%) | Treatment-related Chills, Grade 3 ([1]; Cycle 1): 0 n (%) | Treatment-related Constipation, All grades ([1]; Cycle 1): 4 (12) n (%) | Treatment-related Constipation, Grade 3 ([1]; Cycle 1): 0 n (%) | Treatment-related Cough, All grades ([1]; Cycle 1): 0 n (%) | Treatment-related Cough, Grade 3 ([1]; Cycle 1): 0 n (%) | Treatment-related Diarrhoea, All grades ([1]; Cycle 1): 6 (18) n (%) | Treatment-related Diarrhoea, Grade 3 ([1]; Cycle 1): 0 n (%) | Treatment-related Dyspnea, All grades ([1]; Cycle 1): 3 (9) n (%) | Treatment-related Dyspnea, Grade 3 ([1]; Cycle 1): 0 n (%) | Treatment-related Epistaxis, All grades ([1]; Cycle 1): 0 n (%) | Treatment-related Epistaxis, Grade 3 ([1]; Cycle 1): 0 n (%) | Treatment-related Fatigue, All grades ([1]; Cycle 1): 11 (33) n (%) | Treatment-related Fatigue, Grade 3 ([1]; Cycle 1): 0 n (%) | Treatment-related Flatulence, All grades ([1]; Cycle 1): 0 n (%) | Treatment-related Flatulence, Grade 3 ([1]; Cycle 1): 0 n (%) | Treatment-related Mucosal inflammation, All grades ([1]; Cycle 1): 0 n (%) | Treatment-related Mucosal inflammation, Grade 3 ([1]; Cycle 1): 0 n (%) | Treatment-related Muscular weakness, All grades ([1]; Cycle 1): 0 n (%) | Treatment-related Muscular weakness, Grade 3 ([1]; Cycle 1): 0 n (%) | Treatment-related Nausea, All grades ([1]; Cycle 1): 10 (30) n (%) | Treatment-related Nausea, Grade 3 ([1]; Cycle 1): 0 n (%) | Treatment-related Peripheral oedema, All grades ([1]; Cycle 1): 3 (9) n (%) | Treatment-related Peripheral oedema, Grade 3 ([1]; Cycle 1): 0 n (%) | Treatment-related Pyrexia, All grades ([1]; Cycle 1): 1 (3) n (%) | Treatment-related Pyrexia, Grade 3 ([1]; Cycle 1): 0 n (%) | Treatment-related Rash, All grades ([1]; Cycle 1): 4 (12) n (%) | Treatment-related Rash, Grade 3 ([1]; Cycle 1): 0 n (%) | Treatment-related Vomiting, All grades ([1]; Cycle 1): 2 (6) n (%) | Treatment-related Vomiting, Grade 3 ([1]; Cycle 1): 0 n (%) | Patients with treatment interrupted following treatment-related AEs ([1]; after cycle 1 (two 200-mg QD, one 225-mg QD)): three | Diarrhoea incidence ([1]; after cycle 1, all cohorts): 30% | Epistaxis incidence ([1]; after cycle 1, all cohorts): 12% | Fatigue incidence ([1]; after cycle 1, all cohorts): 30% | Nausea incidence ([1]; after cycle 1, all cohorts): 15% | Grade 1/2 leukopenia and thrombocytopenia ([1]; all cohorts): 58–67 % of patients | Grade 3/4 leukopenia and neutropenia ([1]; all cohorts): 20–25 % of patients | Patients requiring dose reductions ([1]; all cohorts): Five | Patients who discontinued treatment permanently because of treatment-related AEs ([1]; all cohorts): No patient | Treatment-related grade 4 non-haematological AEs ([1]; all cohorts): no treatment-related grade 4 non-haematological AEs; also recorded: no treatment-related grade 4 toxicity | Grade 3 or 4 leukopenia ([1]; all cohorts and cycles): 21% | Grade 3 or 4 lymphopenia ([1]; all cohorts and cycles): 36% | Grade 3 or 4 neutropenia ([1]; all cohorts and cycles): 24% | Grade 3 or 4 thrombocytopenia ([1]; all cohorts and cycles): 9% | Grade 3 or 4 anaemia ([1]; all cohorts and cycles, a single patient): 3% | Number of grade 3 non-haematological AEs ([1]; all cohorts, all after the first cycle (fatigue, hyperglycaemia, hyponatremia, nausea, vomiting; n=1 each)): Five | Constipation incidence ([1]; during cycle 1, all cohorts): 12% | Diarrhoea incidence ([1]; during cycle 1, all cohorts): 18% | Fatigue incidence ([1]; during cycle 1, all cohorts): 33% | Nausea incidence ([1]; during cycle 1, all cohorts): 30% | Rash incidence ([1]; during cycle 1, all cohorts): 12% | Anaemia, Grade 1/2 [1, 3]: 21 (64) n (%) | Anaemia, Grade 3/4 [1, 3]: 1 (3) n (%) | Leukopenia, Grade 1/2 [1, 3]: 22 (67) n (%) | Leukopenia, Grade 3/4 [1, 3]: 7 (21) n (%) | Lymphopenia, Grade 1/2 [1, 3]: 8 (24) n (%) | Lymphopenia, Grade 3/4 [1, 3]: 12 (36) n (%) | Neutropenia, Grade 1/2 [1, 3]: 14 (42) n (%) | Neutropenia, Grade 3/4 [1, 3]: 8 (24) n (%) | Thrombocytopenia, Grade 1/2 [1, 3]: 19 (58) n (%) | Thrombocytopenia, Grade 3/4 [1, 3]: 3 (9) n (%) | Emax (platelets): 92.2%
